Experimental findings from the METLIN SMRT retention time set (Domingo-Almenara et al. 2019) are described below.

The series in a line: gradient 5% acetonitrile 3 min, to 50% in 2 min, to 85% in 15 min, held 3 min, 100 µL/min. The following applies: column: Zorbax Extend-C18 2.1 x 50 mm; eluents: water / acetonitrile, 0.1% formic acid. Summed up:
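The system's dead and dwell volumes were 40 μL and 900 μL, with a Zorbax Extend-C18 column (2.1 × 50 mm, 1.8 μm) run at 100 μL/min in water and acetonitrile containing 0.1% formic acid each. Pure standards were analyzed in mixtures of ~100 molecules by HPLC–quadrupole time-of-flight mass spectrometry in positive and negative ionization mode. Retention time was assigned from computationally picked, manually inspected adduct peaks.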
The compound `Cc1c(Cl)cccc1N1C(=O)CN(S(C)(=O)=O)CC1(C)C(=O)NCc1ccc(F)cc1` (stereo not drawn) showed an RP-LC retention time of 814 s.

Consider `Cn1c(=O)c2c(nc(OCCc3ccccc3)n2C)n(C)c1=O`, for which the RP-LC retention time is 909 s. Regarding `CCN(CC)C(=O)c1ccc2c(c1)N(CC(=O)NCCOC)C(=O)C1CCCCN21` (stereo not drawn), the RP-LC retention time is 688 s.

Turning to `CC(C)Oc1ccc(CNS(=O)(=O)c2cc(-c3nc(C(C)C)cs3)cs2)cc1`, the RP-LC retention time was 1210 s.

Take `CCN1C(=O)c2cccnc2Sc2cc(NC(=O)c3ccc(OC)nc3)ccc21`: the RP-LC retention time was determined as 756 s. Under `O=C(CC1(O)C(=O)Nc2c(Cl)cc(Cl)cc21)c1cccc2ccccc12` (stereo not drawn) stands 862 s; under `CCNC(=O)Cn1c(=O)c2cnc(-c3ccc(Cl)cc3)nc2n(C)c1=O`, 927 s; under `Cc1csc(-c2cc(S(=O)(=O)NCc3ccc(C(C)C)cc3)cn2CC(=O)N2CCCC2)n1`, 1030 s. Under `COc1ccc(C)cc1NC(=O)CN1C(=O)C(C)(C)c2cc(C)ccc21` stands 588 s; under `CC(NC(=O)c1ccc2c(c1)nc1n2CCN(Cc2ccccc2)C1=O)c1ccccn1` (stereo not drawn), 622 s; under `Cc1ccccc1-c1noc(CCn2nc(-c3ccccc3)ccc2=O)n1`, 1000 s. The figure for `O=C(Cn1cccc(-c2nc(-c3ccccc3)no2)c1=O)Nc1ccc(Br)cc1` is 968 s; for `CCn1c(=O)sc2cc(S(=O)(=O)N3CCC(C(=O)NC(C)C)CC3)ccc21` it is 749 s. For `Cc1cccc(CNC(=O)C2CCN(S(=O)(=O)c3cc(C(=O)N4CCCC4)n(C)c3)CC2)c1`, the RP-LC retention time was determined as 747 s.

For `CCOC(=O)C1CCN(C(=O)c2csc(Nc3ccc(S(C)(=O)=O)cc3)n2)CC1`, the RP-LC retention time came out at 620 s. `O=C(CCC(=O)N1CCN(c2ccc(=O)n(-c3ccccc3)n2)CC1)N1CCOCC1`: the RP-LC retention time came out at 612 s. `c1ccc(Sc2ncccn2)nc1` returned an RP-LC retention time of 662 s. The figure for `O=C(CN1C(=O)C(C(=O)N2CCCC2)Sc2ccccc21)NCc1ccccc1` (stereo not drawn) is 870 s. The figure for `O=C1CCc2cc(S(=O)(=O)NCCc3ccccc3)cc3c2N1CCC3` is 840 s. On to `COc1ccc(SCC(=O)Nc2c3c(nn2C)CCC3)cc1`, for which the RP-LC retention time is 687 s.

Take `Cc1c2cnn(CC(=O)NCc3ccco3)c(=O)c2c(C)n1Cc1cccc(Cl)c1`: the RP-LC retention time came out at 862 s. Under `COc1ccc(Cl)cc1NC(=O)C1CCN(C(=O)c2cccn2-c2cccnc2)CC1` stands 784 s; under `CC(C)S(=O)(=O)c1cc2c(cc1NC(=O)c1ccccc1Br)n(C)c(=O)n2C`, 822 s; under `O=C(COc1ccc(F)cc1)N1CCCCC1CCN1CCCCC1` (stereo not drawn), 648 s. The figure for `O=C(Cn1c(=O)oc2ccccc21)Nc1nc(-c2ccc(Cl)cc2)cs1` is 1020 s. With `O=C(CCc1ccccc1)N1CCCC1c1nc(-c2ccccc2Cl)no1` (stereo not drawn), the RP-LC retention time came out at 1040 s.

The compound `O=S(=O)(c1ccc(F)cc1F)N1CCc2nc(-c3ccc(F)cc3)ncc2C1` showed an RP-LC retention time of 1110 s. The figure for `COc1cccc(CNC(=O)Nc2c(-c3cccc(C)c3)nc3ccccn23)c1` is 673 s; for `CCOc1ccc(-c2nn3c(Cc4ccc(OC)cc4)nnc3s2)cc1` it is 1070 s. Under `COc1ccc(-c2noc(C3CCCN3C(=O)Nc3ccccc3Br)n2)cc1` (stereo not drawn) stands 1070 s; under `CCOC(=O)c1c(C)[nH]c(C(=O)N2CCCC(C(=O)NCCC3=CCCCC3)C2)c1C` (stereo not drawn), 893 s; under `COC(=O)C(C)n1nc2nc(Nc3cc(C)cc(C)c3)cc(C)n2c1=O` (stereo not drawn), 1160 s. In the case of `CC(C)Cc1nnc(C(=O)Nc2cccc(C(=O)NCCc3c[nH]c4ccccc34)c2)s1`, the RP-LC retention time was 955 s. The figure for `Cc1cccc(-c2noc(Cn3c(=O)n(C(C)C)c(=O)c4ccccc43)n2)c1` is 1170 s; for `CCOC(=O)c1c(C)oc2nc(C)nc(Nc3cc(C)ccc3OC)c12` it is 1350 s; for `COc1ccc(NC(=O)C2CCN(C(=O)C3Sc4ccccc4NC3=O)CC2)cc1` (stereo not drawn) it is 729 s. Under `Cn1nc(CNC(=O)C2(C)CCCCC2)c2c1CCN(S(C)(=O)=O)C2` stands 702 s; under `Cc1ccc(-c2noc(Cc3nc(-c4ccc(F)cc4)cs3)n2)cc1`, 1310 s. Under `Brc1cccc(-c2noc(Cc3nnc(-c4ccccc4)o3)n2)c1` stands 1090 s; under `CN(C)C/C=C/C(=O)Nc1ccc(C(=O)Nc2cccc(Nc3ncc(Cl)c(-c4c[nH]c5ccccc45)n3)c2)cc1`, 800 s; under `Cn1nc2n(c1=O)CCN(S(=O)(=O)Cc1ccccc1)CC2`, 659 s. Regarding `COc1ccc(Cl)cc1N1CC(c2nc3ccccc3n2CC(=O)N2CCOCC2)CC1=O` (stereo not drawn), the RP-LC retention time came to 662 s. The figure for `CC(=O)c1ccc(NC(=O)CCc2c(C)nn(-c3cc(N4CCCC4)ncn3)c2C)cc1` is 769 s. Under `CN1C(=O)c2cc(C(=O)N3CCC(C(N)=O)CC3)nn2CC1(C)C(=O)NC1CCCCCC1` (stereo not drawn) stands 956 s. Under `COc1cc(NC(=O)C2CCN(S(=O)(=O)c3ccc4c(c3)sc(=O)n4C)CC2)cc(OC)c1` stands 875 s; under `O=C(c1ccc(-c2ccsc2)nc1)N1CCN(c2ccccn2)CC1`, 604 s. For the compound `Nc1cc(C(F)(F)F)c(-c2cc(N3CCOCC3)nc(N3CCOCC3)n2)cn1`, the RP-LC retention time came out at 650 s. As for `CC(=O)N1CCc2c([nH]c3ccccc23)C12C(=O)N(C)c1ccc(Br)cc12` (stereo not drawn), the RP-LC retention time was found to be 857 s. As to `CCN(CC)c1ccc(CN(C(=O)Cc2coc3ccc(C)cc23)C2CCS(=O)(=O)C2)cc1` (stereo not drawn), the RP-LC retention time was determined as 706 s.

`COc1ccccc1NC(=O)Nc1nc(CC(=O)NCc2ccco2)cs1` yielded an RP-LC retention time of 712 s.

In the case of `CN1C(=O)COc2ccc(-c3csc(NC(=O)C4CCCO4)n3)cc21` (stereo not drawn), the RP-LC retention time amounted to 762 s. The figure for `Cc1ccc(Nc2c(-c3c(F)cccc3Cl)nc3ccc(Cl)cn23)cc1` is 994 s; for `COC(=O)c1ccc(NC(=O)c2sc(-c3cn(C)c4ncccc34)nc2C)cc1` it is 1080 s. Take `Cc1ccc(S(=O)(=O)N2CCCC(Cn3c(C)nc4cccnc43)C2)c(C)c1` (stereo not drawn): the RP-LC retention time was determined as 747 s. Under `COc1ccc2c(c1)C1(CCN(C(=O)Cc3ccc(C)cc3)C1)C(=O)N2` (stereo not drawn) stands 757 s. Under `CN(C)C[C@@H]1CN(Cc2ccccc2)C[C@H]1NS(=O)(=O)c1cccc(F)c1` stands 586 s; under `CCc1ccc(NC(=O)Nc2ccc(NC(=O)N3CCC(C(=O)NC)CC3)cc2)cc1`, 704 s; under `Cc1nc(-c2ccc(F)cc2)sc1C(=O)N1CCC(C(C)C(=O)N2CCOCC2)CC1` (stereo not drawn), 745 s.
